Measured values from patent publication US20070167631A1, “Novel herbicides” (priority 2003, published 2007).

Test system: Amaranthus
Assay: Post-emergence herbicidal action (Example B2)
Type: in vivo
Conditions: 250 g/ha, after about 18 days, rating scale 10=total damage, 0=no action
Text: (§1) Monocotyledonous and dicotyledonous test plants are cultivated in a greenhouse in standard soil in plastic pots and, at the 4- to 6-leaf stage, are sprayed with an aqueous suspension of the test compounds of formula I prepared from a 25% wettable powder (Example F3, b) according to WO 97/34485) or with an emulsion of the test compounds of formula I prepared from a 25% emulsifiable concentrate (Example F1, c) according to WO 97/34485), corresponding to concentrations of 125 and 250 g of active ingredient per hectare (500 litres of water per ha). The test plants are then grown on in the greenhouse under optimum conditions. After a test duration of about 18 days, the test is evaluated in accordance with a scale of eleven ratings (10=total damage, 0=no action). Ratings of from 10 to 7 (especially from 10 to 8) indicate very good to good herbicidal action.

In order of rising “Post-emergence action: Amaranthus” value:
1. CC1(C)CC(C)(C)C(O)=C(C(=O)c2ccc(C(F)(F)F)c(N3CCOCC3)n2)C1=O [Compound 3.075]  2
2. CC1(C)OC(C)(C)C(O)=C(C(=O)c2ccc(C(F)(F)F)c(N3CCOCC3)n2)C1=O [Compound 3.076]  7
3. CC1(C)C(=O)C(C(=O)c2ccc(C(F)(F)F)c(C#N)n2)=C(O)C(C)(C)C1=O [Compound 2.208]  8
4. N#CC1CC(=O)C(C(=O)c2ccc(C(F)(F)F)c(N3CCOCC3)n2)=C(O)C1 (stereo not drawn) [Compound 3.212]  8
5. O=C1CCC2(CC2)C(O)=C1C(=O)c1ccc(C(F)(F)F)c(N2CCOCC2)n1 [Compound 3.068]  10

Test system: Chenopodium
Assay: Post-emergence herbicidal action (Example B2)
Type: in vivo
Conditions: 250 g/ha, after about 18 days, rating scale 10=total damage, 0=no action
Text: as §1

In order of rising “Post-emergence action: Chenopodium” value:
1. CC1(C)C(=O)C(C(=O)c2ccc(C(F)(F)F)c(C#N)n2)=C(O)C(C)(C)C1=O [Compound 2.208]  6
2. N#CC1CC(=O)C(C(=O)c2ccc(C(F)(F)F)c(N3CCOCC3)n2)=C(O)C1 (stereo not drawn) [Compound 3.212]  7
3. O=C1CCC2(CC2)C(O)=C1C(=O)c1ccc(C(F)(F)F)c(N2CCOCC2)n1 [Compound 3.068]  9
4. CC1(C)CC(C)(C)C(O)=C(C(=O)c2ccc(C(F)(F)F)c(N3CCOCC3)n2)C1=O [Compound 3.075]  9
5. CC1(C)OC(C)(C)C(O)=C(C(=O)c2ccc(C(F)(F)F)c(N3CCOCC3)n2)C1=O [Compound 3.076]  9

Test system: Echinochloa
Assay: Post-emergence herbicidal action (Example B2)
Type: in vivo
Conditions: 250 g/ha, after about 18 days, rating scale 10=total damage, 0=no action
Text: as §1

In order of falling “Post-emergence action: Echinochloa” value:
1. CC1(C)C(=O)C(C(=O)c2ccc(C(F)(F)F)c(C#N)n2)=C(O)C(C)(C)C1=O [Compound 2.208]  9
2. O=C1CCC2(CC2)C(O)=C1C(=O)c1ccc(C(F)(F)F)c(N2CCOCC2)n1 [Compound 3.068]  9
3. CC1(C)CC(C)(C)C(O)=C(C(=O)c2ccc(C(F)(F)F)c(N3CCOCC3)n2)C1=O [Compound 3.075]  7
4. CC1(C)OC(C)(C)C(O)=C(C(=O)c2ccc(C(F)(F)F)c(N3CCOCC3)n2)C1=O [Compound 3.076]  7
5. N#CC1CC(=O)C(C(=O)c2ccc(C(F)(F)F)c(N3CCOCC3)n2)=C(O)C1 (stereo not drawn) [Compound 3.212]  5

Test system: Euphorbia
Assay: Post-emergence herbicidal action (Example B2)
Type: in vivo
Conditions: 250 g/ha, after about 18 days, rating scale 10=total damage, 0=no action
Text: as §1

In order of falling “Post-emergence action: Euphorbia” value:
1. O=C1CCC2(CC2)C(O)=C1C(=O)c1ccc(C(F)(F)F)c(N2CCOCC2)n1 [Compound 3.068]  9
2. CC1(C)C(=O)C(C(=O)c2ccc(C(F)(F)F)c(C#N)n2)=C(O)C(C)(C)C1=O [Compound 2.208]  8
3. CC1(C)CC(C)(C)C(O)=C(C(=O)c2ccc(C(F)(F)F)c(N3CCOCC3)n2)C1=O [Compound 3.075]  7
4. N#CC1CC(=O)C(C(=O)c2ccc(C(F)(F)F)c(N3CCOCC3)n2)=C(O)C1 (stereo not drawn) [Compound 3.212]  7
5. CC1(C)OC(C)(C)C(O)=C(C(=O)c2ccc(C(F)(F)F)c(N3CCOCC3)n2)C1=O [Compound 3.076]  6

Test system: Panicum
Assay: Post-emergence herbicidal action (Example B2)
Type: in vivo
Conditions: 250 g/ha, after about 18 days, rating scale 10=total damage, 0=no action
Text: as §1

In order of rising “Post-emergence action: Panicum” value:
1. N#CC1CC(=O)C(C(=O)c2ccc(C(F)(F)F)c(N3CCOCC3)n2)=C(O)C1 (stereo not drawn) [Compound 3.212]  0
2. CC1(C)CC(C)(C)C(O)=C(C(=O)c2ccc(C(F)(F)F)c(N3CCOCC3)n2)C1=O [Compound 3.075]  5
3. CC1(C)OC(C)(C)C(O)=C(C(=O)c2ccc(C(F)(F)F)c(N3CCOCC3)n2)C1=O [Compound 3.076]  7
4. CC1(C)C(=O)C(C(=O)c2ccc(C(F)(F)F)c(C#N)n2)=C(O)C(C)(C)C1=O [Compound 2.208]  9
5. O=C1CCC2(CC2)C(O)=C1C(=O)c1ccc(C(F)(F)F)c(N2CCOCC2)n1 [Compound 3.068]  10

Test system: Stellaria
Assay: Post-emergence herbicidal action (Example B2)
Type: in vivo
Conditions: 250 g/ha, after about 18 days, rating scale 10=total damage, 0=no action
Text: as §1

In order of falling “Post-emergence action: Stellaria” value:
1. O=C1CCC2(CC2)C(O)=C1C(=O)c1ccc(C(F)(F)F)c(N2CCOCC2)n1 [Compound 3.068]  9
2. CC1(C)CC(C)(C)C(O)=C(C(=O)c2ccc(C(F)(F)F)c(N3CCOCC3)n2)C1=O [Compound 3.075]  8
3. CC1(C)OC(C)(C)C(O)=C(C(=O)c2ccc(C(F)(F)F)c(N3CCOCC3)n2)C1=O [Compound 3.076]  7
4. N#CC1CC(=O)C(C(=O)c2ccc(C(F)(F)F)c(N3CCOCC3)n2)=C(O)C1 (stereo not drawn) [Compound 3.212]  7
5. CC1(C)C(=O)C(C(=O)c2ccc(C(F)(F)F)c(C#N)n2)=C(O)C(C)(C)C1=O [Compound 2.208]  5

Test system: Xanthium
Assay: Post-emergence herbicidal action (Example B2)
Type: in vivo
Conditions: 250 g/ha, after about 18 days, rating scale 10=total damage, 0=no action
Text: as §1

In order of rising “Post-emergence action: Xanthium” value:
1. CC1(C)C(=O)C(C(=O)c2ccc(C(F)(F)F)c(C#N)n2)=C(O)C(C)(C)C1=O [Compound 2.208]  8
2. CC1(C)CC(C)(C)C(O)=C(C(=O)c2ccc(C(F)(F)F)c(N3CCOCC3)n2)C1=O [Compound 3.075]  8
3. CC1(C)OC(C)(C)C(O)=C(C(=O)c2ccc(C(F)(F)F)c(N3CCOCC3)n2)C1=O [Compound 3.076]  8
4. N#CC1CC(=O)C(C(=O)c2ccc(C(F)(F)F)c(N3CCOCC3)n2)=C(O)C1 (stereo not drawn) [Compound 3.212]  8
5. O=C1CCC2(CC2)C(O)=C1C(=O)c1ccc(C(F)(F)F)c(N2CCOCC2)n1 [Compound 3.068]  9

Test system: Digitaria
Assay: Microscreen, post-emergence herbicidal action (Example B3)
Type: in vivo
Conditions: 250 g/ha, evaluated after 9 or 13 days, scale of eleven ratings (10=total damage, 0=no action)
Description: (§2) Example B3 Microscreen, Post-Emergence Herbicidal Action Monocotyledonous and dicotyledonous test plants are sown in sterilised standard soil in seed trays each having 96 cells. After 8 to 9 days' cultivation under controlled conditions in a climatic chamber (cultivation at 17/23° C.; 13 hours' light; 50-60% humidity; after application at 19/24° C.), the plants are treated with an aqueous spray solution of 1000 mg/l of the active ingredient used ([…]; incl. 10% DMSO as solvent). The plants are grown on in the climatic chamber until the test is evaluated after 9 or 13 days. The test is evaluated in accordance with a scale of eleven ratings (10=total damage, 0=no action). Ratings of from 10 to 7 (especially from 10 to 8) indicate very good to good herbicidal action.

In order of rising “Digitaria, herbicidal action rating” value:
1. CN(C(=O)c1ccccc1)c1nc(C(=O)C2=C(O)CCCC2=O)ccc1C(F)(F)F [Compound 1.091]  2
2. O=C1CCCC(O)=C1C(=O)c1ccc(C(F)(F)F)c(-n2cncn2)n1 [Compound 1.082]  3
3. CCN(CC)c1nc(C(=O)C2=C(O)CCCC2=O)ccc1C(F)(F)F [Compound 1.060]  4
4. O=C1CCCC(O)=C1C(=O)c1ccc(C(F)(F)F)c(-n2cccn2)n1 [Compound 1.080]  5
5. CN(C)c1nc(C(=O)C2=C(O)CCCC2=O)ccc1C(F)(F)F [Compound 1.059]  7
6. C=C(OCC)c1nc(C(=O)C2=C(O)CCCC2=O)ccc1C(F)(F)F [Compound 1.189]  7
7. O=C1CCCC(O)=C1C(=O)c1ccc(OCC(F)(F)F)c(N2CCOCC2)n1 [Compound 1.094]  8

Test system: Stellaria
Assay: as above
Type: in vivo
Conditions: 250 g/ha, evaluated after 9 or 13 days, scale of eleven ratings (10=total damage, 0=no action)
Description: as §2

In order of falling “Stellaria, herbicidal action rating” value:
1. O=C1CCCC(O)=C1C(=O)c1ccc(C(F)(F)F)c(-n2cncn2)n1 [Compound 1.082]  10
2. CN(C)c1nc(C(=O)C2=C(O)CCCC2=O)ccc1C(F)(F)F [Compound 1.059]  9
3. O=C1CCCC(O)=C1C(=O)c1ccc(C(F)(F)F)c(-n2cccn2)n1 [Compound 1.080]  9
4. C=C(OCC)c1nc(C(=O)C2=C(O)CCCC2=O)ccc1C(F)(F)F [Compound 1.189]  8
5. CCN(CC)c1nc(C(=O)C2=C(O)CCCC2=O)ccc1C(F)(F)F [Compound 1.060]  7
6. O=C1CCCC(O)=C1C(=O)c1ccc(OCC(F)(F)F)c(N2CCOCC2)n1 [Compound 1.094]  7
7. CN(C(=O)c1ccccc1)c1nc(C(=O)C2=C(O)CCCC2=O)ccc1C(F)(F)F [Compound 1.091]  6

Test system: Amaranthus
Assay: as above
Type: in vivo
Conditions: 250 g/ha, evaluated after 9 or 13 days, scale of eleven ratings (10=total damage, 0=no action)
Description: (§3) Example B3 Microscreen, Post-Emergence Herbicidal Action Monocotyledonous and dicotyledonous test plants are sown in sterilised standard soil in seed trays each having 96 cells. […] The plants are grown on in the climatic chamber until the test is evaluated after 9 or 13 days. The test is evaluated in accordance with a scale of eleven ratings (10=total damage, 0=no action). Ratings of from 10 to 7 (especially from 10 to 8) indicate very good to good herbicidal action.

In order of rising “Amaranthus, herbicidal action rating” value:
1. O=C1CCCC(O)=C1C(=O)c1ccc(C(F)(F)F)c(-n2cncn2)n1 [Compound 1.082]  6
2. CN(C)c1nc(C(=O)C2=C(O)CCCC2=O)ccc1C(F)(F)F [Compound 1.059]  7
3. O=C1CCCC(O)=C1C(=O)c1ccc(C(F)(F)F)c(-n2cccn2)n1 [Compound 1.080]  7
4. CCN(CC)c1nc(C(=O)C2=C(O)CCCC2=O)ccc1C(F)(F)F [Compound 1.060]  8
5. CN(C(=O)c1ccccc1)c1nc(C(=O)C2=C(O)CCCC2=O)ccc1C(F)(F)F [Compound 1.091]  8
6. O=C1CCCC(O)=C1C(=O)c1ccc(OCC(F)(F)F)c(N2CCOCC2)n1 [Compound 1.094]  9

Test system: Nasturtium
Assay: as above
Type: in vivo
Conditions: 250 g/ha, evaluated after 9 or 13 days, scale of eleven ratings (10=total damage, 0=no action)
Description: as §3

In order of falling “Nasturtium, herbicidal action rating” value:
1. O=C1CCCC(O)=C1C(=O)c1ccc(C(F)(F)F)c(-n2cccn2)n1 [Compound 1.080]  10
2. O=C1CCCC(O)=C1C(=O)c1ccc(C(F)(F)F)c(-n2cncn2)n1 [Compound 1.082]  10
3. CN(C)c1nc(C(=O)C2=C(O)CCCC2=O)ccc1C(F)(F)F [Compound 1.059]  9
4. CCN(CC)c1nc(C(=O)C2=C(O)CCCC2=O)ccc1C(F)(F)F [Compound 1.060]  9
5. CN(C(=O)c1ccccc1)c1nc(C(=O)C2=C(O)CCCC2=O)ccc1C(F)(F)F [Compound 1.091]  9
6. C=C(OCC)c1nc(C(=O)C2=C(O)CCCC2=O)ccc1C(F)(F)F [Compound 1.189]  9
7. O=C1CCCC(O)=C1C(=O)c1ccc(OCC(F)(F)F)c(N2CCOCC2)n1 [Compound 1.094]  8

Test system: Solanum
Assay: as above
Type: in vivo
Conditions: 250 g/ha, evaluated after 9 or 13 days, scale of eleven ratings (10=total damage, 0=no action)
Description: as §3

In order of rising “Solanum, herbicidal action rating” value:
1. CCN(CC)c1nc(C(=O)C2=C(O)CCCC2=O)ccc1C(F)(F)F [Compound 1.060]  8
2. CN(C)c1nc(C(=O)C2=C(O)CCCC2=O)ccc1C(F)(F)F [Compound 1.059]  9
3. O=C1CCCC(O)=C1C(=O)c1ccc(C(F)(F)F)c(-n2cccn2)n1 [Compound 1.080]  9
4. O=C1CCCC(O)=C1C(=O)c1ccc(C(F)(F)F)c(-n2cncn2)n1 [Compound 1.082]  9
5. CN(C(=O)c1ccccc1)c1nc(C(=O)C2=C(O)CCCC2=O)ccc1C(F)(F)F [Compound 1.091]  9
6. C=C(OCC)c1nc(C(=O)C2=C(O)CCCC2=O)ccc1C(F)(F)F [Compound 1.189]  9
7. O=C1CCCC(O)=C1C(=O)c1ccc(OCC(F)(F)F)c(N2CCOCC2)n1 [Compound 1.094]  10
